We go through 23 compounds from patent publication EP4660185A1, “NAV1.7- AND/OR NAV1.8-INHIBITING AMIDES, PROCESSES FOR THE PREPARATION THEREOF, COMPOSITIONS, USES, METHODS FOR TREATMENT USING SAME, AND KITS” (Eurofarma Laboratórios S.A., priority 2023, dated 2024).

A word on the IC50: it is the concentration at which inhibition is half-maximal.

SMILES strings stand for the structures.

Experiment [1] deals with T1, human sodium channels Nav 1.8 (Homo sapiens, UniProt Q9Y5Y9).
T1 construct: expressed in transfected cells
Put plainly: Automated whole-cell voltage-clamp (ScreenPatch 384P) sodium current block, Nav 1.8. The format is cell-based. Particulars: CHO cells stably expressing human Nav 1.8; holding -100 mV, inactivation step -40 mV for 8 seconds, test step 10 mV (TP1A); exposure at least five minutes, room temperature; mean where tested in two or more assays; read-out: Nav1.8 IC50. As for the experimental part:
(§1) Biological assays were performed on Chinese hamster ovary (CHO) cells that express human sodium channels Nav 1.8 or Nav 1.7 in a stable manner.
(§2) The experimental protocol voltage-clamp using the whole cell configuration was established on the automated ScreenPatch® 384P platform (SP384PE, Nanion Technologies, Livingston, NJ) and the results were recorded with a Nanion 384-well Patch Clamp chip (NPC) (Nanion Technologies, Livingston, NJ).
(§3) Compounds of Formula Ia and Formula Ib were diluted in eight concentrations in the extracellular solution composed of saline solution, buffered with HEPES (mM): NaCl, 137; KCl, 4; CaCl2, 3,8; MgCl2, 1; HEPES, 10; Glucose, 10; pH 7.4. The […], 50; CsF, 90; MgCl2, 5; EGTA, 5; HEPES, 10; pH 7.2. The duration of exposure of each compound with cells expressing Nav 1.7 or Nav 1.8 was at least five minutes, and the assays were performed at room temperature.
(§4) The measurements of the sodium currents of Nav 1.8 and Nav 1.7 were obtained using the voltage protocol described below: A holding voltage of -100 mV was established followed by an inactivation voltage step at -40 mV for 8 seconds, followed by a step of -100 mV for 20 ms, followed by a 20 ms step for 10 mV for Nav 1.8 or 0 mV for Nav 1.7 (TP1A) before returning to the holding voltage of -100 mV.
(§5) The protocol was repeated at a frequency of 0.05 Hz and the amplitude of the current was quantified throughout the recording of the TP1A phase. The variation in the amplitude of the peak current was evaluated according to the formula described below, after exposing the cells expressing the channels to each concentration of the different compounds: % Block = (1−(ITP1A,molecule/ITP1A,basal)×100%, [formula] wherein ITP1A,basal and ITP1A,molecule represent the peaks of sodium current input into TP1A before exposure to the compound and in the presence of the compound, respectively.
(§6) Data were obtained by nonlinear regression (nonlinear least squares) with XLfit for Excel (Microsoft, Redmond, WA).
(§7) The compounds were tested in at least one assay to obtain the value of CI50. For compounds that were tested in two or more assays, the results are described as the mean of the CI50 values.

For experiment [2], the target named is T2, human sodium channels Nav 1.7 (Homo sapiens, UniProt Q15858).
T2 construct: expressed in transfected cells
Put plainly: Automated whole-cell voltage-clamp (ScreenPatch 384P) sodium current block, Nav 1.7. Format: cell-based. The settings on record: CHO cells stably expressing human Nav 1.7; holding -100 mV, inactivation step -40 mV for 8 seconds, test step 0 mV (TP1A); exposure at least five minutes, room temperature; mean where tested in two or more assays; read-out: Nav1.7 IC50. As to the method:
as §1, §2, §3, §4, §5, §6, §7

T1 sequence (Q9Y5Y9 whole entry): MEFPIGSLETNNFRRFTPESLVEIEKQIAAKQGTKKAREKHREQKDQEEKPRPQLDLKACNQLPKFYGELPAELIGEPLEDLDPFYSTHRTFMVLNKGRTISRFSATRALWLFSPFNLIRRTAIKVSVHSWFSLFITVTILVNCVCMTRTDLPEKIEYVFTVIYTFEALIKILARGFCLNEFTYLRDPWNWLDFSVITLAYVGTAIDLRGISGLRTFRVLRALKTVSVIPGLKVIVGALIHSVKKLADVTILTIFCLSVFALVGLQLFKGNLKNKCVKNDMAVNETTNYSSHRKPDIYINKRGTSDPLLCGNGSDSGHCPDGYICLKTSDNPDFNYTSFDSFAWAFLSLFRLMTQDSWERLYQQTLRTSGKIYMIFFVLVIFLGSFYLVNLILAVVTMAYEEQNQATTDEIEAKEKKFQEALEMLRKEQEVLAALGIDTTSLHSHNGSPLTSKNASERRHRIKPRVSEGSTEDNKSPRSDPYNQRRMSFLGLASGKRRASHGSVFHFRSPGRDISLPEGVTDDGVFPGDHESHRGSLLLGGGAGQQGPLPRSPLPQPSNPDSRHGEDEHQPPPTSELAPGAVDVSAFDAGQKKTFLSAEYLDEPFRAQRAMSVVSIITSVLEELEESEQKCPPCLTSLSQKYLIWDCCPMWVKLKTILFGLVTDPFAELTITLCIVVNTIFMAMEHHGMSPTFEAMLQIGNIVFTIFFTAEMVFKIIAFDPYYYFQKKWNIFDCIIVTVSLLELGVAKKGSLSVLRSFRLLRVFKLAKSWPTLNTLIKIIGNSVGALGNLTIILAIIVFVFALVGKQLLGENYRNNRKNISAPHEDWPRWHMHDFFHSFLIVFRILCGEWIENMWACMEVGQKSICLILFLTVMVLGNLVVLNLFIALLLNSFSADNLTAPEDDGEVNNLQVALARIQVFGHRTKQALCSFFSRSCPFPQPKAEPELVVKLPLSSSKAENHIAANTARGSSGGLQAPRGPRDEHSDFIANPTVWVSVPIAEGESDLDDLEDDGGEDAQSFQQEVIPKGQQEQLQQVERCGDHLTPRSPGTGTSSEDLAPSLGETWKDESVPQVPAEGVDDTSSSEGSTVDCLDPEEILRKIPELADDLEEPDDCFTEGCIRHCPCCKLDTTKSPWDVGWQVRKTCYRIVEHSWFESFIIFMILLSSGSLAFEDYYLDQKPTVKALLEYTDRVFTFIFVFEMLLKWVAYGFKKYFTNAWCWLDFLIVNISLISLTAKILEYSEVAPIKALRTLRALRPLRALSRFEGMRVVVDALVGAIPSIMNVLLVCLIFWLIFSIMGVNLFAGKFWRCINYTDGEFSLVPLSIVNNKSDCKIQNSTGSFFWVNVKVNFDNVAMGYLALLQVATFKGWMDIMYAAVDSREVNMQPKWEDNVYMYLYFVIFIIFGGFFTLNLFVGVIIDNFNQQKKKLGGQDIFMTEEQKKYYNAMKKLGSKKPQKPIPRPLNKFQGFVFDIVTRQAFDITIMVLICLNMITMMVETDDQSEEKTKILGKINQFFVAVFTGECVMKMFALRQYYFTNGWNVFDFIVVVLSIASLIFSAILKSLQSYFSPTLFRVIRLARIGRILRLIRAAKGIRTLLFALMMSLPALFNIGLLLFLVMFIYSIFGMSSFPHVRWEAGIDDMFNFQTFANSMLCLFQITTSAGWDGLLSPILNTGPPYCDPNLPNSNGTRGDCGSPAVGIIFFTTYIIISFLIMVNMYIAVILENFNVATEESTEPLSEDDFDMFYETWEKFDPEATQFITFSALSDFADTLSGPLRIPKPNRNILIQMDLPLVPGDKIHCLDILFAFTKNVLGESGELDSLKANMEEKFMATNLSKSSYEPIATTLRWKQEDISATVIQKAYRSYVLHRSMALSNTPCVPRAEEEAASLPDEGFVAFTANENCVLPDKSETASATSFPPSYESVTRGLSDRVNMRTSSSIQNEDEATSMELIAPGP
T2 sequence (Q15858 whole entry): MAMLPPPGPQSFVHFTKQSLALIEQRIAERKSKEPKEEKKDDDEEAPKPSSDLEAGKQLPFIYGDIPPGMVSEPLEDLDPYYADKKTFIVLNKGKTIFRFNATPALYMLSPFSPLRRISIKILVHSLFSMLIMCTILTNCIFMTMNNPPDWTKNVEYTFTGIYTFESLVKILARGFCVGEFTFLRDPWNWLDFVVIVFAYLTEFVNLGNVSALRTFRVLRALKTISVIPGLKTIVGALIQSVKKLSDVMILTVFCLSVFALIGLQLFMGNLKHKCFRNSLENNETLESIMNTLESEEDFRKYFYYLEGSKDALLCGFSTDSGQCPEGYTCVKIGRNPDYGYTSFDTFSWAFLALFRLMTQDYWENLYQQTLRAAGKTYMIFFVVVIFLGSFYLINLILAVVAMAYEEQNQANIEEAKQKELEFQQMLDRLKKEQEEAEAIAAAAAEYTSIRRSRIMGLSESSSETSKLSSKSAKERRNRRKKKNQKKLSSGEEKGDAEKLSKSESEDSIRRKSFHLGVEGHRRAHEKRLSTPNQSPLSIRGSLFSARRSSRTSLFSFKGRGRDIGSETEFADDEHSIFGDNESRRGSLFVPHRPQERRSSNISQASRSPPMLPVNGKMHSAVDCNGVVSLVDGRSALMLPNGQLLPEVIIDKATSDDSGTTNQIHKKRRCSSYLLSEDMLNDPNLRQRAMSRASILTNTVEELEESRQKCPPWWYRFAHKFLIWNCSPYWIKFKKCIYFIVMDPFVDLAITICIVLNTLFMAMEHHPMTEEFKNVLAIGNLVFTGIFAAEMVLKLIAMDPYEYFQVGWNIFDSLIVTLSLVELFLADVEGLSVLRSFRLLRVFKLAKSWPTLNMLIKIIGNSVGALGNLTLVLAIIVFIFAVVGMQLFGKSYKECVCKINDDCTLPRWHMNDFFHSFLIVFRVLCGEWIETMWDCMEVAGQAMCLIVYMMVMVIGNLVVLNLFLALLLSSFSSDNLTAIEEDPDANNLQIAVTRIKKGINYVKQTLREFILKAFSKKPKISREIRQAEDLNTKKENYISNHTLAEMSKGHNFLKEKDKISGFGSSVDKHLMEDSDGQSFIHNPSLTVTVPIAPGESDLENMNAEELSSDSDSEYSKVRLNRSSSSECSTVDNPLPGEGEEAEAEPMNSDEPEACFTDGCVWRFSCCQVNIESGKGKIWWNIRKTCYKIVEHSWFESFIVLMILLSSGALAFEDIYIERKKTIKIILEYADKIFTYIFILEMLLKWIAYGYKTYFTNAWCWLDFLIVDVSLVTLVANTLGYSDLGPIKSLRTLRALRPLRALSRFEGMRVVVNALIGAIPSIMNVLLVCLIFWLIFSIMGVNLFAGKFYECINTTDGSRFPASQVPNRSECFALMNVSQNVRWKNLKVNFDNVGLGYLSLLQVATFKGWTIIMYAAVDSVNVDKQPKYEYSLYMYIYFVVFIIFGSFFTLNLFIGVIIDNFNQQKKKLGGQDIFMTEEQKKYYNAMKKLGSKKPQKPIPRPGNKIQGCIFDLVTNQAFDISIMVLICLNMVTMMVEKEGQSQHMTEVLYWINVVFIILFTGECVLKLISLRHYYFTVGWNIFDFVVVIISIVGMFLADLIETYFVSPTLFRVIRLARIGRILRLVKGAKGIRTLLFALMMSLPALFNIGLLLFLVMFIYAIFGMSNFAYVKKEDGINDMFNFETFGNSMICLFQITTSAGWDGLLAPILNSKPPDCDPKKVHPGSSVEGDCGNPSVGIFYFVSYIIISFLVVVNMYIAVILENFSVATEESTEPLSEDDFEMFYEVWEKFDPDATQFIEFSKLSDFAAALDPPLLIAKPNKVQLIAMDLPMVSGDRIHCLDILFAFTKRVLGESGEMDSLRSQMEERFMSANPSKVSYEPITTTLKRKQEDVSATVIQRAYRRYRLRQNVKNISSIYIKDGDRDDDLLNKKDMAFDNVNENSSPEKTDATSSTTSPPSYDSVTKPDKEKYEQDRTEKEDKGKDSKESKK

Regarding `CCOc1ccc(-c2cncc(C(=O)Nc3cc4c(OC)cccc4[nH]3)n2)cc1` [compound 60], the IC50 is less than 500 nM in experiment [1] and 500 to 1000 nM in experiment [2].
For `CCOc1ccc(-c2cncc(C(=O)Nc3nc4c(F)ccc(OC)c4s3)n2)cn1` [compound 61] the same measures were more than 1000 nM and more than 1000 nM.
For `CCOc1ccc(-c2cncc(C(=O)Nc3cn4c(F)ccc(OC)c4n3)n2)cn1` [compound 63] the same measures were more than 1000 nM and more than 1000 nM.
On the same counts, the results for `CCOc1ccc(-c2cncc(C(=O)Nc3nc4c(F)ccc(OC)c4[nH]3)n2)cn1` [compound 64] are more than 1000 nM and more than 1000 nM.
As to `CCOc1ccc(-c2cncc(C(=O)Nc3nc4c(F)ccc(OC)c4o3)n2)cn1` [compound 65], the IC50 in experiment [1] and in experiment [2] was more than 1000 nM in each case.
As for `CCOc1ccc(-c2cncc(C(=O)Nc3nc4c(OC)ccc(F)c4n3C)n2)cn1` [compound 66], the concentration for half-maximal inhibition (IC50) in experiment [1] and in experiment [2] was more than 1000 nM throughout.
With `CCOc1ccc(-c2cncc(C(=O)Nc3nc4c(F)ncc(OC)c4o3)n2)cn1` [compound 67], the half-maximal inhibitory concentration (IC50) in experiment [1] and in experiment [2] was more than 1000 nM in each case.
For the compound `CCOc1ccc(-c2cncc(C(=O)Nc3cn4c(OC)ccc(F)c4n3)n2)cn1` [compound 68], the half-maximal inhibitory concentration (IC50) in experiment [1] and in experiment [2] was more than 1000 nM throughout.
For the compound `CCOc1ccc(-c2cncc(C(=O)Nc3cc4c(F)ccc(OC)c4[nH]3)n2)cn1` [compound 69], the concentration for half-maximal inhibition (IC50) in experiment [1] was less than 500 nM; in experiment [2], more than 1000 nM.
With `CCOc1ccc(-c2cncc(C(=O)Nc3cc4c(F)ccc(OC)c4n3C)n2)cn1` [compound 70], the IC50 in experiment [1] and in experiment [2] was more than 1000 nM throughout.
Turning to `CCOc1ccc(-c2cncc(C(=O)N(C)c3cc4c(F)ccc(OC)c4[nH]3)n2)cn1` [compound 71], the IC50 in experiment [1] and in experiment [2] was more than 1000 nM in each case.
As for `CCOc1ccc(-c2cncc(C(=O)Nc3cc4cccc(OC)c4[nH]3)n2)cn1` [compound 72], the IC50 in experiment [1] and in experiment [2] was more than 1000 nM each time.
In the case of `CCOc1ccc(-c2cncc(C(=O)Nc3cc4c(OC)cccc4[nH]3)n2)cn1` [compound 73], the IC50 in experiment [1] and in experiment [2] was more than 1000 nM each time.
As for `CCOc1ccc(-c2cncc(C(=O)Nc3cc4c(OC)ccc(F)c4[nH]3)n2)cn1` [compound 74], the IC50 is less than 500 nM in experiment [1] and 500 to 1000 nM in experiment [2].
As for `CCOc1ccc(-c2cncc(C(=O)Nc3cc4c(OC)ccc(F)c4n3C)n2)cn1` [compound 75], the IC50 in experiment [1] and in experiment [2] was more than 1000 nM each time.
For `CCOc1ccc(-c2cncc(C(=O)Nc3cc4c(F)ccc(OC)c4[nH]3)n2)cc1` [compound 76], the IC50 in experiment [1] and in experiment [2] was more than 1000 nM each time.
`CCOc1ccc(-c2cncc(C(=O)Nc3cc4c(OC)ccc(F)c4[nH]3)n2)cc1` [compound 77]: the IC50 in experiment [1] and in experiment [2] was more than 1000 nM throughout.
As to `CCOc1ccc(-c2cncc(C(=O)N[C@H]3CCc4c(OC)ccc(F)c4C3)n2)cn1` [compound 78], the IC50 in experiment [1] was less than 500 nM; in experiment [2], more than 1000 nM.
With `CCOc1ccc(-c2cncc(C(=O)N[C@@H]3CCc4c(OC)ccc(F)c4C3)n2)cn1` [compound 79], the IC50 in experiment [1] and in experiment [2] was 500 to 1000 nM throughout.
As for `CCOc1ccc(-c2cncc(C(=O)NCc3ccc4ccc(OC)cn34)n2)cn1` [compound 80], the results for the IC50 in experiment [1] and in experiment [2] were less than 500 nM and more than 1000 nM, respectively.
On the same counts, the results for `CCOc1ccc(-c2cncc(C(=O)N[C@@H]3Cc4c(F)ccc(OC)c4C3)n2)cn1` [compound 81] are less than 500 nM and more than 1000 nM.
As to `CCOc1ccc(-c2cncc(C(=O)N[C@H]3Cc4c(F)ccc(OC)c4C3)n2)cn1` [compound 82], the IC50 in experiment [1] is 500 to 1000 nM; in experiment [2], more than 1000 nM.
For `CCOc1ccc(-c2cncc(C(=O)N[C@H]3Cc4c(OC)cnc(F)c4C3)n2)cn1` [compound 83] the same measures were more than 1000 nM and more than 1000 nM.
